Target: T1, human GPR119 (Homo sapiens, UniProt Q8TDV5)
T1 construct: expressed in transfected cells
T1 sequence (Q8TDV5 1-335): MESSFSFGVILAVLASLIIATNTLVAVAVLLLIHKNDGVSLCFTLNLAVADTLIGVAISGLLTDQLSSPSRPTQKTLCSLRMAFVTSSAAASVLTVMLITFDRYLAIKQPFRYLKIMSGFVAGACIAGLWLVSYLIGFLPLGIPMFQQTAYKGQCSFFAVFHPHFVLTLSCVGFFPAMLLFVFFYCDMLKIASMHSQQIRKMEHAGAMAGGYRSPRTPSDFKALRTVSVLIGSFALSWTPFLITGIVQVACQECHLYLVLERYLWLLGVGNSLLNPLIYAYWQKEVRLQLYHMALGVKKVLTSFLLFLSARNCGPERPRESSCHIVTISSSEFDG
Assay: Functional cellular assay measuring GPR119-mediated cAMP release (HTRF) in HEK-293 cells stably expressing recombinant GPR119
Type: cell-based
Conditions: cAMP response, cell line expressing human GPR119 (HEK-293), 30 minutes at room temperature
Experimental: Functional Cellular Assays Measuring GPR119-Mediated cAMP Release
Compounds of the invention, which are agonists of GPR119, were characterized by functional assays measuring the cAMP response of HEK-293 cell lines stably expressing recombinant GPR119 from man, mouse or rat, or by using a hamster cell line HIT-T15 expressing GPR119 endogenously. The cAMP content was determined using a kit based on homogenous time-resolved fluorescence (HTRF) from Cisbio Corp. (cat. no. 62AM4PEC). For preparation, cells were split into T175 culture flasks and grown to near confluency in medium (DMEM/10% FCS for HEK-293 cells, and F-12K medium/10% horse serum/2.5% FCS for HIT-T15 cells, respectively). Medium was then removed and cells washed with PBS lacking calcium and magnesium ions, followed by proteinase treatment with accutase (Sigma-Aldrich, cat. no. A6964). Detached cells were washed and resuspended in assay buffer (1×HBSS; 20 mM HEPES, 0.1% BSA, 2 mM IBMX) and cellular density determined. They were then diluted to 400000 cells/mL and 25 μL-aliquots dispensed to the wells of 96-well plates. For measurement, 25 μL of test compound in assay buffer was added and incubated for 30 minutes at room temperature. After addition of HTRF reagents diluted in lysis buffer, the plates were incubated for 1 hour, followed by measuring the fluorescence ratio at 665 vs. 620 nm. Potency of the agonists was quantified by determining the concentrations that caused 50% of the maximal response/activation (EC50). See Table 3 for exemplary data obtained using the cell line expressing human GPR119.

Row | SMILES | EC50 [nM]
1 | CN(C)C(=O)Cn1nc2ccc(N3CC[C@@H](Oc4ccc(C(=O)CC5CC5)cc4)C3=O)cn2c1=O [Example 1-12, 2-[6-[(3R)-3-[4-(2-cyclopropylacetyl)phenoxy]-2-oxo-pyrrolidin-1-yl]-3-oxo-[1,2,4]triazolo[4,3-a]pyridin-2-yl]-N,N-dimethyl-acetamide] | 269
2 | CS(=O)(=O)Cn1nc2ccc(N3CC[C@@H](Oc4ccc(Oc5ccc(F)cc5)nc4)C3=O)cn2c1=O [Example 1-31, 6-[(3R)-3-[[6-(4-fluorophenoxy)-3-pyridyl]oxy]-2-oxo-pyrrolidin-1-yl]-2-(methylsulfonylmethyl)-[1,2,4]triazolo[4,3-a]pyridin-3-one] | 365
3 | Cn1nc2ccc(N3CC[C@@H](Oc4ccc(OCC5CC5)nc4)C3=O)cc2n1 [Example 1-21, (3R)-3-[[6-(cyclopropylmethoxy)-3-pyridyl]oxy]-1-(2-methylbenzotriazol-5-yl)pyrrolidin-2-one] | 2050
4 | COC(=O)Cn1nc2ccc(N3CC[C@@H](Oc4ccc(OCC5CC5)nc4)C3=O)cn2c1=O [Example 1-26, methyl 2-[6-[(3R)-3-[[6-(cyclopropylmethoxy)-3-pyridyl]oxy]-2-oxo-pyrrolidin-1-yl]-3-oxo-[1,2,4]triazolo[4,3-a]pyridin-2-yl]acetate] | 113
5 | CN(C)C(=O)Cn1nc2c(F)cc(N3CC[C@@H](Oc4ccc(OCC5CC5)nc4)C3=O)cn2c1=O [Example 2-01, 2-[6-[(3R)-3-[[6-(cyclopropylmethoxy)-3-pyridyl]oxy]-2-oxo-pyrrolidin-1-yl]-8-fluoro-3-oxo-[1,2,4]triazolo[4,3-a]pyridin-2-yl]-N,N-dimethyl-acetamide] | 126
6 | Cn1nc2c(F)cc(N3CC[C@@H](Oc4ccc(OCC5CC5)nc4)C3=O)cn2c1=O [Example 1-27, 6-[(3R)-3-[[6-(cyclopropylmethoxy)-3-pyridyl]oxy]-2-oxo-pyrrolidin-1-yl]-8-fluoro-2-methyl-[1,2,4]triazolo[4,3-a]pyridin-3-one] | 1870
7 | O=C1[C@H](Oc2ccc(OCC3CC3)nc2)CCN1c1ccc2n[nH]c(=O)n2c1 [Example 1-14, 6-[(3R)-3-[[6-(cyclopropylmethoxy)-3-pyridyl]oxy]-2-oxo-pyrrolidin-1-yl]-2H-[1,2,4]triazolo[4,3-a]pyridin-3-one] | 701
8 | CN(C)C(=O)Cn1nc2ccc(N3CC[C@@H](Oc4ccc(OCC5CC5)nc4)C3=O)cn2c1=O [Example 1-09, 2-[6-[(3R)-3-[[6-(cyclopropylmethoxy)-3-pyridyl]oxy]-2-oxo-pyrrolidin-1-yl]-3-oxo-[1,2,4]triazolo[4,3-a]pyridin-2-yl]-N,N-dimethyl-acetamide] | 191
9 | CN(C)C(=O)Cn1nc2ccc(N3CC[C@@H](Oc4ccc(OCC(F)(F)F)nc4)C3=O)cn2c1=O [Example 1-30, N,N-dimethyl-2-[3-oxo-6-[(3R)-2-oxo-3-[[6-(2,2,2-trifluoroethoxy)-3-pyridyl]oxy]pyrrolidin-1-yl]-[1,2,4]triazolo[4,3-a]pyridin-2-yl]acetamide] | 203
10 | NC(=O)Cn1nc2ccc(N3CC[C@@H](Oc4ccc(OCC5CC5)nc4)C3=O)cc2n1 [Example 2-05, 2-[5-[(3R)-3-[[6-(cyclopropylmethoxy)-3-pyridyl]oxy]-2-oxo-pyrrolidin-1-yl]benzotriazol-2-yl]acetamide] | 196
11 | O=C1[C@H](Oc2ccc(Oc3ccc(F)cc3)nc2)CCN1c1cc(F)c2n[nH]c(=O)n2c1 [Example 1-10, 8-fluoro-6-[(3R)-3-[[6-(4-fluorophenoxy)-3-pyridyl]oxy]-2-oxo-pyrrolidin-1-yl]-2H-[1,2,4]triazolo[4,3-a]pyridin-3-one] | 658

Source: patent publication US9758520B2, “Substituted fused heterocycles as GPR119 modulators for the treatment of diabetes, obesity, dyslipidemia and related disorders” (SANOFI, priority 2014, dated 2017)
